According to the NIST ThermoML archive (doi:10.1021/acs.jced.6b00496):

Columns and labels:
[1] = 101.33 kPa, Liquid; for speed of sound: Sing-around technique in a fixed-path interferometer; for mass density: Vibrating tube method
[2] = xn = mol fraction of the nth substance listed; details: 81.5 kPa, Liquid, x2 = 0; for speed of sound: Sing-around technique in a fixed-path interferometer; for mass density: Vibrating tube method

CCn1cc[n+](C)c1.F[B-](F)(F)F [1-ethyl-3-methylimidazolium tetrafluoroborate]
[1]
Details | mass density [kg/m3] | speed of sound [m/s]
293.15 K | 1285.95 | 1640.4
298.15 K | 1282.14 | 1628.4
303.15 K | 1278.34 | 1616
308.15 K | 1274.55 | 1604.9
313.15 K | 1270.78 | 1593.4
318.15 K | 1267.03 | 1582
323.15 K | 1263.3 | 1570.6
328.15 K | 1259.58 | 1559.4
333.15 K | 1255.88 | 1548.2
338.15 K | 1252.2 | 1537.2
343.15 K | 1248.54 | 1526.2

CC(=O)N(C)C [N,N-dimethylethanamide]
[1]
Details | mass density [kg/m3] | speed of sound [m/s]
293.15 K | 941.341 | 1477.6
298.15 K | 936.729 | 1457.4
303.15 K | 932.112 | 1437.4
308.15 K | 927.492 | 1417.5
313.15 K | 922.863 | 1397.8
318.15 K | 918.23 | 1378.2
323.15 K | 913.586 | 1358.6
328.15 K | 908.932 | 1339.2
333.15 K | 904.268 | 1319.9
338.15 K | 899.595 | 1300.8
343.15 K | 894.909 | 1281.7

CC(=O)N(C)C [N,N-dimethylethanamide] + CCn1cc[n+](C)c1.F[B-](F)(F)F
[2]
Details | mass density [kg/m3] | speed of sound [m/s]
293.15 K | 941.341 | 1477.6
298.15 K | 936.729 | 1457.4
303.15 K | 932.112 | 1437.4
308.15 K | 927.492 | 1417.5
313.15 K | 922.863 | 1397.8
318.15 K | 918.23 | 1378.2
323.15 K | 913.586 | 1358.6
328.15 K | 908.932 | 1339.2
333.15 K | 904.268 | 1319.9
338.15 K | 899.595 | 1300.8
343.15 K | 894.909 | 1281.7

CN(C)C=O [dimethylformamide]
[1]
Details | mass density [kg/m3] | speed of sound [m/s]
293.15 K | 948.743 | 1477.1
298.15 K | 943.978 | 1457.6
303.15 K | 939.201 | 1438
308.15 K | 934.417 | 1418.7
313.15 K | 929.62 | 1399.3
318.15 K | 924.812 | 1380
323.15 K | 919.993 | 1360.9
328.15 K | 915.159 | 1341.7
333.15 K | 910.312 | 1322.7
338.15 K | 905.445 | 1303.7
343.15 K | 900.565 | 1284.8

CN(C)C=O [dimethylformamide] + CCn1cc[n+](C)c1.F[B-](F)(F)F
[2]
Details | mass density [kg/m3] | speed of sound [m/s]
293.15 K | 948.743 | 1477.1
298.15 K | 943.978 | 1457.6
303.15 K | 939.201 | 1438
308.15 K | 934.417 | 1418.7
313.15 K | 929.62 | 1399.3
318.15 K | 924.812 | 1380
323.15 K | 919.993 | 1360.9
328.15 K | 915.159 | 1341.7
333.15 K | 910.312 | 1322.7
338.15 K | 905.445 | 1303.7
343.15 K | 900.565 | 1284.8
